Assay [1] concerns NFκB. Kind of assay: TNF-α-induced NFκB activation (luciferase activity) in keratinocytes. Conditions: 25 ng/ml TNF-α co-treated 8 hours, 100 μM DON, 5 μM Bay11-7082, vs TNF-α only-treated group. In kind it is cell-based. The procedure:
(§1) This example was intended to indirectly confirm the inhibition of chemokine secretion and histone acetylation by confirming the activity of NFκB in skin cells with a dermatitis lesion, and confirming whether the accelerated NFκB activity was inhibited.
(§2) NIH3T3/NFκB-luc cells, which is a cell line capable of confirming the activity of an NFκB transcription factor through luciferase activity were treated with 25 ng/ml of TNF-α to activate an NFκB signal, and as a positive control, 5 μM of a TNF-α inhibitor, Bay11-7082 (Bay), causing an NF-κB signaling inhibitory action was used. NIH3T3/NFκB-luc cells were dispensed at […] in a 96-well plate, and stabilized in an incubator for 24 hours. To confirm the DON efficacy on NFκB, TNF-α and 100 μM DON were co-treated for 8 hours and then lysed, thereby obtaining a cell enzyme solution, and then the cell enzyme solution was reacted with luciferin, and luciferase activity was measured using a luminometer (FIGS. 3 and 4). The difference in the number of cells between treatment groups was corrected with the resulting values of luciferase activity using protein quantification.

Assay [2] relates to NFκB. The assay is described as follows: TNF-α-induced NFκB activation (luciferase activity) in fibroblasts (NIH3T3/NFκB-luc cells). It is filed as cell-based. Conditions: 25 ng/ml TNF-α co-treated 8 hours, 100 μM DON, 5 μM Bay11-7082, vs TNF-α only-treated group. The procedure:
as §1, §2

Another assay deals with TPA-induced inflammation. The assay is described as follows: TPA-induced inflammation inhibiting experiment (mouse ear). It is filed as in vivo, C57BL/6 female mice. Conditions: for visual skin condition of the ear area: after 5 days of application, compared to a negative control (FIG. 6); for number of mast cells / penetration of mast cells into lesion: toluidine blue staining, 200× image, DEX 3 mg, CRI 0.6 mg, DON 0.1 mg on ears, vs TPA positive control. The procedure:
For an experiment of inducing and inhibiting inflammation using 12-O-tetradecanoylphorbol-13-acetate (TPA, Sigma), 14 week-old C57BL/6 female mice were purchased from NARA Biotech (Korea) and used. The purchased mice were acclimated for 7 days, and healthy animals were selected and tested. During the experimental period, the mice were raised while maintaining the environment at a temperature of 21 to 25° C., a relative humidity of 45 to 65% and a lighting time of 12 hours, and freely fed feed and drinking water.
First, the acclimated mice with similar characteristics such as a body weight and size were divided into five experimental groups of 3, and separately raised to confirm an anti-inflammation level. Inflammation was induced by first applying 1.0 ug of TPA to each of both ears of a mouse, and after 1 hour, a therapeutic material was applied, which was continued for 5 days. A mouse to which only acetone (Merck), which is a TPA solvent, was applied was set as a negative control (Vehicle), a mouse to which 1.0 ug of TPA dissolved in acetone was applied was set as a positive control and evaluated, and after TPA was applied, mice to which each of 3 mg of dexamethasone (DEX, Sigma), 0.6 mg of crisaborole (CRI, ChemScene) and 0.1 mg of 6-diazo-5-oxo-L-norleucine (DON, Sigma) was applied were set as experimental groups. After applying each material for 5 days by the above-described method, the weight, ear thickness and ear weight of each mouse were measured, and ear tissue was collected and histologically analyzed by hematoxylin & eosin (H&E) staining and toluidine blue staining.
FIG. 8 is a graph obtained by scoring visually evaluated ear lesions, divided into erythema, scaling and a thickness, and in the graph, the severity of symptoms was rated on a 5-point scale (0=none; 1=slight; 2=moderate; 3=marked; and 4=very marked).
Afterward, to confirm the anti-inflammatory effect of DON, the mouse's ear thickness and ear weight were measured and quantified (FIGS. 9A and 9B), and, based on the histological analysis result obtained by toluidine blue staining capable of confirming mast cells, the number of mast cells was measured by comparing three tissue samples per group using a 200× image (FIG. 9C). […] Therefore, it was confirmed that DON can alleviate pruritus symptoms by inhibiting the histamine secretion not only from epithelial cells but also from mast cells, and can also prevent severe dermatitis caused by secondary infection.

The subject of the next assay is IMQ-induced psoriasis. Kind of assay: IMQ-induced psoriasis inhibiting experiment (mouse back). As to conditions: 0.05% DON, 100 μl on back. In kind it is in vivo, female C57/BL6 mice. The procedure:
For a psoriasis inhibition experiment using imiquimod (IMQ, Tokyo Chemical Industry, 10747-100 mg), as an experimental animal, female C57/BL6 mice (n=5) were used. First, to induce psoriasis, sensitization was preceded by evenly applying 4 mg IMQ to the completely shaved back of each of the mice in all groups except a negative control at a volume of 100 μl. For the negative control, the same amount of a solvent without IMQ was applied. Psoriasis was induced by applying IMQ a total of five times at 24-hour intervals for 5 days, and for treatment groups, the same site was treated (applied) with 0.05% dexamethasone (DEX) ([…], 100 μl) or 0.05% DON (0.5 mg/ml, 100 μl) dissolved in ethanol one hour after IMQ treatment.
The severity of scaling (FIG. 20) visually evaluated at a lesion site was classified and evaluated by rating, and the severity of the symptom was rated on a 5-point scale (0=none; 1=slight; 2=moderate; 3=marked; and 4=very marked), and plotted on a graph.

Assay [3] relates to oxazolone-induced atopic dermatitis. Kind of assay: Oxazolone-induced atopic dermatitis inhibiting experiment (mouse ear). It is filed as in vivo, female BALB/c mice. As to the method:
Using five 8-week-old female BALB/c mice per group, an effect of inhibiting oxazolone-induced atopic dermatitis was tested. In the experiment, dermatitis induced on the car of each mouse was treated with a therapeutic candidate, and it was attempted to confirm an effect depending on an administration route of a therapeutic agent through percutaneous application or subcutaneous injection. First, to induce atopic dermatitis in all groups excluding the negative control, 0.35 mg of 4-ethoxymethylene-2-phenyl-2-oxazolin-5-one (oxazolone, OXA) was mixed with 30 μl of acetone, and sensitization was preceded on each of the both ears with the 1% mixture. The same amount of a solvent without OXA was applied for the negative control (vehicle). From 7 days after the initial application of OXA, OXA (0.5%) was additionally applied every two days to induce dermatitis. For treatment groups, dexamethasone (DEX), tacrolimus (TAC), cyclosporine (CYCL), crisaborole (CRI) and DON were used. For percutaneous application, each time OXA was applied, after 1 hour, each of the therapeutic candidates was treated on both ears, and in the administration test via subcutaneous injection, injection was performed 1 hour after OXA treatment, but intermittently performed every two days. As an excipient used in the subcutaneous injection, filtered distilled water was used, and the control was also administered the same amount of sterile water. Finally, on day 22 after the initial OXA application, the experiment was terminated, and the mice were sacrificed and autopsied, ear tissue was collected, and to confirm the morphological structure of the tissue, H&E staining was performed, and to count the number of the infiltrated mast cells, toluidine blue staining was performed.
FIGS. 14A and 14B were obtained by quantifying the total number of cells and the number of mast cells, which are infiltrated into the dermis, from the staining results. (a) The cell numbers were compared using the total number of infiltrated cells in 200 square micrometers (μm^2), and (b) the mast cells infiltrated into the same area were converted into percentage (%) with respect to the total cell number.

The mark [4] stands for this setting: ear lesion, DON 0.1 mg, 5 days (FIG. 8).

Entries after “also recorded” stand apart in the source; their conditions may differ.

As to `Cc1ccc(S(=O)(=O)/C=C/C#N)cc1` [Bay11-7082, reference compound], the “NFκB activity by TNF-α (luciferase activity)” value with NFκB [1] and in the assay with NFκB [2] was “decreased” throughout.
Regarding `N#Cc1ccc(Oc2ccc3c(c2)COB3O)cc1` [CRI, crisaborole, reference compound], the “visual skin condition of the ear area” value with TPA-induced inflammation is “showed erythema and scaling”. For the same compound, in the assay with TPA-induced inflammation (after 5 days), the “number of mast cells / penetration of mast cells into lesion” value is listed as “significantly decreased”.
On to `[N-]=[N+]=CC(=O)CC[C@H](N)C(=O)O` [DON, 6-diazo-5-oxo-L-norleucine], for which the “NFκB activity by TNF-α (luciferase activity)” value in the assay on NFκB [1] and in the assay with NFκB [2] was “reduced; also recorded: inhibited” in each case. For the same compound, in the assay with IMQ-induced psoriasis (5 days (FIG. 21)), the “skin thickness at the lesion” value is listed as “significantly reduced”. Moreover, in the assay with IMQ-induced psoriasis (5 days, vs IMQ positive control (FIG. 20)), the “severity of scaling (visual score, 5-point scale)” value is reported as “significantly decreased”. Besides, in the assay on TPA-induced inflammation (H&E, after 5 days, DON 0.1 mg on ears (FIG. 7)), the “thickened skin tissue of the epidermis and dermis (histological analysis)” value is “becomes thinner”. For the same compound, the “thickness of the epithelium” value in the assay with TPA-induced inflammation (TPA-induced inflammation, inflammatory lesion treated with DON (FIG. 1)) is reported as “significantly reduced”; in assay [3] (oxazolone-induced inflammation, inflammatory lesion treated with DON (FIG. 2)), “significantly reduced”. In addition, the “visual skin condition of the ear area” value in the assay with TPA-induced inflammation was “showed erythema and scaling”. In the assay on TPA-induced inflammation (setting [4]), the “degree of erythema (visual score, 5-point scale)” value is listed as “significantly reduced”. In the assay with TPA-induced inflammation (setting [4]), the “degree of scaling (visual score, 5-point scale)” value is recorded as “significantly reduced”. In the assay on TPA-induced inflammation (setting [4]), the “degree of thickness (visual score, 5-point scale)” value is given as “significantly reduced”. For the same compound, the “number of mast cells / penetration of mast cells into lesion” value is reported as “significantly decreased; also recorded: weakened” in the assay with TPA-induced inflammation (after 5 days) and “significantly reduces; also recorded: weakened” in assay [3] (toluidine blue staining, dermis of ear, day 22). Also, in assay [3] (0.1% (0.0272 mg), ear, percutaneous application (FIG. 12A)), the “weight (g) of ear tissue” value is recorded as “significantly decreased”. Also, in assay [3] (0.1% (0.0272 mg), ear, percutaneous application (FIG. 12B)), the “thickness (mm) of ear tissue” value is “significantly decreased”. Moreover, the “visual symptoms of atopic dermatitis (tissue swelling, eczema, deformation of the ear tissue)” value in assay [3] (0.1% (0.0272 mg), ear, percutaneous application, vs OXA group (FIG. 11)) is “significant skin improvement”. In addition, in assay [3] (histological analysis, total infiltrated cells in 200 μm^2), the “number of immune cells introduced into the dermis” value is “significantly reduces; also recorded: small”. Moreover, the “changes in the epithelium of skin” value in assay [3] (visual and histological analysis) was “significantly reduces”.

The record behind these values is patent US20260021120A1, “METHOD FOR TREATING INFLAMMATORY SKIN DISEASE USING 6-DIAZO-5-OXO-L-NORLEUCINE” (Dermato Bio Inc., priority 2019, published 2026).
